What was measured:
Type in all cases: functional
CCRF-CEM = assay: Cytotoxicity against human CCRF-CEM cells assessed as growth inhibition after 48 hrs by sulforhodamine B assay
HL-60(TB) = assay: Cytotoxicity against human HL-60(TB) cells assessed as growth inhibition after 48 hrs by sulforhodamine B assay; settings: HL-60, 48 h
EKVX = assay: Cytotoxicity against human EKVX cells assessed as growth inhibition after 48 hrs by sulforhodamine B assay; settings: for CC50: read-out: LC50 (the source's name)
HOP-92 = assay: Cytotoxicity against human HOP92 cells assessed as growth inhibition after 48 hrs by sulforhodamine B assay; settings: HOP-92, 48 h
NCI-H23 = assay: Cytotoxicity against human NCI-H23 cells assessed as growth inhibition after 48 hrs by sulforhodamine B assay; settings: NCI-H23, 48 h; for CC50: read-out: LC50 (the source's name)
NCI-H322M = assay: Cytotoxicity against human NCI-H322M cells assessed as growth inhibition after 48 hrs by sulforhodamine B assay; settings: for CC50: read-out: LC50 (the source's name)
NCI-H522 = assay: Cytotoxicity against human NCI-H522 cells assessed as growth inhibition after 48 hrs by sulforhodamine B assay; settings: NCI-H522, 48 h
COLO 205 = assay: Cytotoxicity against human COLO205 cells assessed as growth inhibition after 48 hrs by sulforhodamine B assay; settings: COLO 205, 48 h
HCT-15 = assay: Cytotoxicity against human HCT15 cells assessed as growth inhibition after 48 hrs by sulforhodamine B assay; settings: HCT-15, 48 h
KM12 = assay: Cytotoxicity against human KM12 cells assessed as growth inhibition after 48 hrs by sulforhodamine B assay; settings: KM12, 48 h
SNB-75 = assay: Cytotoxicity against human SNB75 cells assessed as growth inhibition after 48 hrs by sulforhodamine B assay; settings: SNB-75, 48 h
LOX IMVI = assay: Cytotoxicity against human LOXIMVI cells assessed as growth inhibition after 48 hrs by sulforhodamine B assay
MDA-MB-435 = assay: Cytotoxicity against human MDA-MB-435 cells assessed as growth inhibition after 48 hrs by sulforhodamine B assay; settings: MDA-MB-435, 48 h
SK-MEL-2 = assay: Cytotoxicity against human SK-MEL-2 cells assessed as growth inhibition after 48 hrs by sulforhodamine B assay; settings: SK-MEL-2, 48 h
OVCAR-4 = assay: Cytotoxicity against human OVCAR4 cells assessed as growth inhibition after 48 hrs by sulforhodamine B assay; settings: OVCAR-4, 48 h
OVCAR-8 = assay: Cytotoxicity against human OVCAR8 cells assessed as growth inhibition after 48 hrs by sulforhodamine B assay; settings: OVCAR-8, 48 h
SK-OV-3 = assay: Cytotoxicity against human SKOV3 cells assessed as growth inhibition after 48 hrs by sulforhodamine B assay; settings: SK-OV-3, 48 h; for CC50: read-out: LC50 (the source's name)
A498 = assay: Cytotoxicity against human A498 cells assessed as growth inhibition after 48 hrs by sulforhodamine B assay; settings: A498, 48 h
ACHN = assay: Cytotoxicity against human ACHN cells assessed as growth inhibition after 48 hrs by sulforhodamine B assay
TK-10 = assay: Cytotoxicity against human TK10 cells assessed as growth inhibition after 48 hrs by sulforhodamine B assay; settings: TK-10, 48 h
UO-31 = assay: Cytotoxicity against human UO31 cells assessed as growth inhibition after 48 hrs by sulforhodamine B assay; settings: UO-31, 48 h
DU-145 = assay: Cytotoxicity against human DU145 cells assessed as growth inhibition after 48 hrs by sulforhodamine B assay; settings: DU-145, 48 h
Hs-578T = assay: Cytotoxicity against human Hs 578T cells assessed as growth inhibition after 48 hrs by sulforhodamine B assay
T47D = assay: Cytotoxicity against human T47D cells assessed as growth inhibition after 48 hrs by sulforhodamine B assay
MDA-MB-468 = assay: Cytotoxicity against human MDA-MB-468 cells assessed as growth inhibition after 48 hrs by sulforhodamine B assay; settings: MDA-MB-468, 48 h; for CC50: read-out: LC50 (the source's name)

O=C1NC2C(CC(O)C(O)C2O)c2cc3c(c(O)c21)OCO3 (racemic)
GI50 (CCRF-CEM): 52.9 nM
TGI (CCRF-CEM): 2150 nM
GI50 (HL-60(TB)): 60.1 nM
TGI (HL-60(TB)): 260 nM
GI50 (EKVX): 145 nM
TGI (EKVX): 1060 nM
CC50 (EKVX): > 100 µM
GI50 (HOP-92): 49 nM
TGI (HOP-92): 570 nM
GI50 (NCI-H23): 74.4 nM
TGI (NCI-H23): 520 nM
CC50 (NCI-H23): > 100 µM
GI50 (NCI-H322M): 49.6 nM
TGI (NCI-H322M): 480 nM
CC50 (NCI-H322M): > 100 µM
GI50 (NCI-H522): 46.7 nM
TGI (NCI-H522): 310 nM
GI50 (COLO 205): 50.5 nM
TGI (COLO 205): 210 nM
GI50 (HCT-15): 85.7 nM
TGI (HCT-15): 1110 nM
GI50 (KM12): 44.5 nM
TGI (KM12): 320 nM
GI50 (SNB-75): 75.4 nM
TGI (SNB-75): 620 nM
CC50 (SNB-75; read-out: LC50 (the source's name)): 13.2 µM
GI50 (LOX IMVI): 33.6 nM
TGI (LOX IMVI): 170 nM
GI50 (MDA-MB-435): 68.1 nM
TGI (MDA-MB-435): 510 nM
GI50 (SK-MEL-2): 56.1 nM
TGI (SK-MEL-2): 250 nM
GI50 (OVCAR-4): 55.6 nM
TGI (OVCAR-4): 480 nM
GI50 (OVCAR-8): 57.6 nM
TGI (OVCAR-8): 1.06 µM
GI50 (SK-OV-3): 94.9 nM
TGI (SK-OV-3): 1040 nM
CC50 (SK-OV-3): > 100 µM
GI50 (A498): 200 nM
TGI (A498): 540 nM
GI50 (ACHN): 97.9 nM
TGI (ACHN): 750 nM
GI50 (TK-10): 221 nM
TGI (TK-10): 1680 nM
GI50 (UO-31): 100 nM
TGI (UO-31): 1090 nM
GI50 (DU-145): 56.7 nM
TGI (DU-145): 620 nM
GI50 (Hs-578T): 76.1 nM
TGI (Hs-578T): 510 nM
GI50 (T47D): 52.9 nM
TGI (T47D): 670 nM
GI50 (MDA-MB-468): 32 nM
TGI (MDA-MB-468): 190 nM
CC50 (MDA-MB-468): 6.59 µM

O=C1NC2C(CC(O)C(O)C2O)c2cc3c(c(O)c21)OCCO3 (racemic)
GI50 (CCRF-CEM): 73.7 nM
LC50 (concentration giving 50% net cell kill) (CCRF-CEM): > 100 µM
TGI (CCRF-CEM): 1830 nM
GI50 (HL-60(TB)): 166 nM
LC50 (HL-60(TB)): > 100 µM
TGI (HL-60(TB)): 590 nM
GI50 (EKVX): 257 nM
TGI (EKVX): 1270 nM
CC50 (EKVX): > 100 µM
GI50 (HOP-92): 110 nM
LC50 (HOP-92): > 100 µM
TGI (HOP-92): 1010 nM
GI50 (NCI-H23): 214 nM
TGI (NCI-H23): 870 nM
CC50 (NCI-H23): > 100 µM
GI50 (NCI-H322M): 105 nM
TGI (NCI-H322M): 620 nM
CC50 (NCI-H322M): > 100 µM
GI50 (NCI-H522): 147 nM
LC50 (NCI-H522): 7.62 µM
TGI (NCI-H522): 730 nM
GI50 (COLO 205): 176 nM
TGI (COLO 205): 410 nM
GI50 (HCT-15): 280 nM
LC50 (50% lethal concentration) (HCT-15): > 100 µM
TGI (HCT-15): 1910 nM
GI50 (KM12): 187 nM
LC50 (KM12): > 100 µM
TGI (KM12): 1210 nM
GI50 (LOX IMVI): 180 nM
LC50 (concentration killing 50% of cells) (LOX IMVI): 3.58 µM
TGI (LOX IMVI): 530 nM
GI50 (MDA-MB-435): 265 nM
LC50 (concentration killing 50% of cells) (MDA-MB-435): 13.3 µM
TGI (MDA-MB-435): 1170 nM
GI50 (SK-MEL-2): 245 nM
TGI (SK-MEL-2): 930 nM
GI50 (OVCAR-4): 209 nM
LC50 (concentration causing 50% net cell kill) (OVCAR-4): > 100 µM
TGI (OVCAR-4): 820 nM
GI50 (OVCAR-8): 311 nM
LC50 (OVCAR-8): > 100 µM
TGI (OVCAR-8): 5.89 µM
GI50 (SK-OV-3): 496 nM
TGI (SK-OV-3): 4030 nM
CC50 (SK-OV-3): > 100 µM
GI50 (A498): 300 nM
LC50 (concentration killing 50% of cells) (A498): 6.86 µM
TGI (A498): 1170 nM
GI50 (ACHN): 297 nM
LC50 (concentration killing 50% of cells) (ACHN): 7.73 µM
TGI (ACHN): 1480 nM
GI50 (TK-10): 563 nM
LC50 (TK-10): > 100 µM
TGI (TK-10): 3870 nM
GI50 (UO-31): 316 nM
LC50 (UO-31): > 100 µM
TGI (UO-31): 2460 nM
GI50 (DU-145): 239 nM
LC50 (DU-145): > 100 µM
TGI (DU-145): 860 nM
GI50 (Hs-578T): 256 nM
LC50 (concentration killing 50% of cells) (Hs-578T): > 100 µM
TGI (Hs-578T): 940 nM
GI50 (T47D): 143 nM
LC50 (concentration killing 50% of cells) (T47D): > 100 µM
TGI (T47D): 900 nM
GI50 (MDA-MB-468): 68.1 nM
TGI (MDA-MB-468): 360 nM
CC50 (MDA-MB-468): 2.78 µM
